Measurements from the supplement of paper PMC12420376.

Tests used:
KURAMOCHI = assay: drug sensitivity score (DSS2) on cancer cell count; higher = more sensitive; extreme values may be limits of the assay; settings: 72 h
Procedure, shortened: (§1)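 Ovarian cancer cells were cultured either alone or directly mixed 1:1 with lung or skin fibroblasts and plated onto 384-well plates acoustically pre-spotted with 528 approved and investigational compounds at 5 concentrations for 72 h of treatment. After fixation, cells were immunostained for CK8/18 with Hoechst and imaged at 10× across 4 fields to count cancer cells. Responses were fitted with 4-parameter logistic curves, and from these fits a drug sensitivity score was derived in Breeze, with screen quality assessed by Z'.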

OVCAR8 = assay: as above; settings: 72 h
Procedure, shortened: as §1

[1] = co-cultured fibroblast: BJHTERT
[2] = co-cultured fibroblast: none (monoculture)

## CC1(C)CCC(c2ccc(Cl)cc2)=C(CN2CCN(c3ccc(C(=O)NS(=O)(=O)c4ccc(N[C@H](CCN5CCOCC5)CSc5ccccc5)c(S(=O)(=O)C(F)(F)F)c4)cc3)CC2)C1 [Navitoclax]
KURAMOCHI; [1]
  drug sensitivity score: 2.4 DSS
KURAMOCHI; co-cultured fibroblast: WI38
  drug sensitivity score: 3.1 DSS
KURAMOCHI; [2]
  drug sensitivity score: 1.1 DSS
OVCAR8; [1]
  drug sensitivity score: 7.5 DSS
OVCAR8; co-cultured fibroblast: WI38
  drug sensitivity score: 0 DSS
OVCAR8; [2]
  drug sensitivity score: 0.3 DSS

## CN1C(=O)N[C@H](Cc2c[nH]c3c(Cl)cccc23)C1=O [Necrostatin 2]
KURAMOCHI; [1]
  drug sensitivity score: 0 DSS
KURAMOCHI; co-cultured fibroblast: WI38
  drug sensitivity score: 0 DSS
KURAMOCHI; [2]
  drug sensitivity score: 0 DSS
OVCAR8; [1]
  drug sensitivity score: 0 DSS
OVCAR8; co-cultured fibroblast: WI38
  drug sensitivity score: 0 DSS
OVCAR8; [2]
  drug sensitivity score: 0 DSS

## O=c1ncn2nc(Sc3ccc(F)cc3F)ccc2c1-c1c(Cl)cccc1Cl [Neflamapimod]
KURAMOCHI; [1]
  drug sensitivity score: 9.1 DSS
KURAMOCHI; co-cultured fibroblast: WI38
  drug sensitivity score: 0.7 DSS
KURAMOCHI; [2]
  drug sensitivity score: 14.9 DSS
OVCAR8; [1]
  drug sensitivity score: 0 DSS
OVCAR8; co-cultured fibroblast: WI38
  drug sensitivity score: 0 DSS
OVCAR8; [2]
  drug sensitivity score: 0.3 DSS

## COc1nc(N)nc2c1ncn2[C@@H]1O[C@H](CO)[C@@H](O)[C@@H]1O [Nelarabine]
KURAMOCHI; [1]
  drug sensitivity score: 0 DSS
KURAMOCHI; co-cultured fibroblast: WI38
  drug sensitivity score: 0 DSS
KURAMOCHI; [2]
  drug sensitivity score: 0 DSS
OVCAR8; [1]
  drug sensitivity score: 1 DSS
OVCAR8; co-cultured fibroblast: WI38
  drug sensitivity score: 3.4 DSS
OVCAR8; [2]
  drug sensitivity score: 0.3 DSS

## CCOc1cc2ncc(C#N)c(Nc3ccc(OCc4ccccn4)c(Cl)c3)c2cc1NC(=O)/C=C/CN(C)C [Neratinib]
KURAMOCHI; [1]
  drug sensitivity score: 9 DSS
KURAMOCHI; co-cultured fibroblast: WI38
  drug sensitivity score: 3.6 DSS
KURAMOCHI; [2]
  drug sensitivity score: 1.4 DSS
OVCAR8; [1]
  drug sensitivity score: 7 DSS
OVCAR8; co-cultured fibroblast: WI38
  drug sensitivity score: 3 DSS
OVCAR8; [2]
  drug sensitivity score: 6 DSS

## Cc1cn(-c2cc(NC(=O)c3ccc(C)c(Nc4nccc(-c5cccnc5)n4)c3)cc(C(F)(F)F)c2)cn1 [Nilotinib]
KURAMOCHI; [1]
  drug sensitivity score: 0 DSS
KURAMOCHI; co-cultured fibroblast: WI38
  drug sensitivity score: 8 DSS
KURAMOCHI; [2]
  drug sensitivity score: 9.8 DSS
OVCAR8; [1]
  drug sensitivity score: 0 DSS
OVCAR8; co-cultured fibroblast: WI38
  drug sensitivity score: 11 DSS
OVCAR8; [2]
  drug sensitivity score: 3 DSS

## CC1(C)NC(=O)N(c2ccc([N+](=O)[O-])c(C(F)(F)F)c2)C1=O [Nilutamide]
KURAMOCHI; [1]
  drug sensitivity score: 0 DSS
KURAMOCHI; co-cultured fibroblast: WI38
  drug sensitivity score: 3.2 DSS
KURAMOCHI; [2]
  drug sensitivity score: 14.5 DSS
OVCAR8; [1]
  drug sensitivity score: 0 DSS
OVCAR8; co-cultured fibroblast: WI38
  drug sensitivity score: 0 DSS
OVCAR8; [2]
  drug sensitivity score: 0 DSS

## COC(=O)c1ccc2c(c1)NC(=O)/C2=C(\Nc1ccc(N(C)C(=O)CN2CCN(C)CC2)cc1)c1ccccc1 [Nintedanib]
KURAMOCHI; [1]
  drug sensitivity score: 8.2 DSS
KURAMOCHI; co-cultured fibroblast: WI38
  drug sensitivity score: 2.7 DSS
KURAMOCHI; [2]
  drug sensitivity score: 4.6 DSS
OVCAR8; [1]
  drug sensitivity score: 9.8 DSS
OVCAR8; co-cultured fibroblast: WI38
  drug sensitivity score: 4.6 DSS
OVCAR8; [2]
  drug sensitivity score: 7.9 DSS

## NC(=O)c1cccc2cn(-c3ccc([C@@H]4CCCNC4)cc3)nc12 [Niraparib]
KURAMOCHI; [1]
  drug sensitivity score: 5.8 DSS
KURAMOCHI; co-cultured fibroblast: WI38
  drug sensitivity score: 6.8 DSS
KURAMOCHI; [2]
  drug sensitivity score: 5.1 DSS
OVCAR8; [1]
  drug sensitivity score: 14.9 DSS
OVCAR8; co-cultured fibroblast: WI38
  drug sensitivity score: 8.1 DSS
OVCAR8; [2]
  drug sensitivity score: 9 DSS

## CC(O)c1cc(C(=O)N[C@@H](C)Cn2ccc(-c3ccc(C#N)c(Cl)c3)n2)n[nH]1 (stereo partly drawn) [ODM-201]
KURAMOCHI; [1]
  drug sensitivity score: 1.3 DSS
KURAMOCHI; co-cultured fibroblast: WI38
  drug sensitivity score: 0 DSS
KURAMOCHI; [2]
  drug sensitivity score: 3.7 DSS
OVCAR8; [1]
  drug sensitivity score: 0.5 DSS
OVCAR8; co-cultured fibroblast: WI38
  drug sensitivity score: 0 DSS
OVCAR8; [2]
  drug sensitivity score: 0 DSS

## CC(=O)c1cnc2ccc(-c3cc(Cl)c(O)c(Cl)c3)nc2c1N[C@H]1CC[C@H](CN(C)C)CC1 [OTS167]
KURAMOCHI; [1]
  drug sensitivity score: 14.9 DSS
KURAMOCHI; co-cultured fibroblast: WI38
  drug sensitivity score: 13.5 DSS
KURAMOCHI; [2]
  drug sensitivity score: 11.7 DSS
OVCAR8; [1]
  drug sensitivity score: 20.6 DSS
OVCAR8; co-cultured fibroblast: WI38
  drug sensitivity score: 16.1 DSS
OVCAR8; [2]
  drug sensitivity score: 19.2 DSS

## O=C(c1cc(Cc2n[nH]c(=O)c3ccccc23)ccc1F)N1CCN(C(=O)C2CC2)CC1 [Olaparib]
KURAMOCHI; [1]
  drug sensitivity score: 4.6 DSS
KURAMOCHI; co-cultured fibroblast: WI38
  drug sensitivity score: 7.3 DSS
KURAMOCHI; [2]
  drug sensitivity score: 11.4 DSS
OVCAR8; [1]
  drug sensitivity score: 12.5 DSS
OVCAR8; co-cultured fibroblast: WI38
  drug sensitivity score: 6.9 DSS
OVCAR8; [2]
  drug sensitivity score: 9 DSS

## C=CC(=O)Nc1cccc(Oc2nc(Nc3ccc(N4CCN(C)CC4)cc3)nc3ccsc23)c1 [Olmutinib]
KURAMOCHI; [1]
  drug sensitivity score: 2.1 DSS
KURAMOCHI; co-cultured fibroblast: WI38
  drug sensitivity score: 2.7 DSS
KURAMOCHI; [2]
  drug sensitivity score: 0 DSS
OVCAR8; [1]
  drug sensitivity score: 0 DSS
OVCAR8; co-cultured fibroblast: WI38
  drug sensitivity score: 0 DSS
OVCAR8; [2]
  drug sensitivity score: 0 DSS
